# Laboratory results reported in patent US10660928B2, “Pharmaceutical composition containing combination extracts of Moutan Root Bark, Angelica Dahurica Root, bupleurum root or fractions thereof for prevention and treatment of neurodegenerative disorder” (UNIVERSITY-INDUSTRY COOPERATION GROUP OF KYUNG HEE …, priority 2014, dated 2020).
# Key:
# [1] = system: SH-SY5Y, the human neuroblastoma cell line; experiment: Cell survival rate (calcein) in normal cells, cytotoxicity; type: cell-based; conditions: human, 4 h, 0.5 μg/ml
# Method: Particularly, SH-SY5Y, the human neuroblastoma cell line, was inoculated in DMEM/F12 (Dulbeco's Modified Eagle's Medium & Ham's F12; Gibco, USA) supplemented with 10% FBS, followed by culture in a 37° C., 5% CO2/95% air (O2) incubator. Then, the cultured cells were transferred into a serum free medium at the density of 2.5×10^4 cells/well. […] The cells were collected and the cell survival rate was measured by using calcein. The survival rate of the cells that were increased or decreased compared with that of the normal control cells not-treated with the extract or its active component above and instead treated with DMSO was calculated and presented as percentage (%). Particularly, SH-SY5Y cells were cultured by the same manner as described in Experimental Example <1-1>. The cultured cells were transferred in a serum free medium at the density of 2.5×10^4 cells/well. […] The cells were collected and the cell survival rate was measured by using calcein. The cell survival rate that was increased or decreased compared with that of the normal control group not-treated with the extract or its active component above and instead treated with DMSO was calculated and presented as percentage (%).
# GRP78 = experiment: RT-PCR of endoplasmic reticulum stress marker GRP78, thapsigargin; type: cell-based, human; conditions: treatment 0.5 μg/ml, thapsigargin 0.5 μg/ml; negative control 100.00
# Method: (§1) Particularly, SH-SY5Y cells were cultured by the same manner as described in Experimental Example <2-2>, and endoplasmic reticulum stress was induced. Then, RT-PCR was performed with the cells having endoplasmic reticulum stress by the same manner as described in Experimental Example <1-4>, followed by electrophoresis to investigate the expression levels of GRP78 and XBP1p genes on 1.5% agarose gel under UV. The normal control was not treated with the extract of the invention or the active component thereof but treated with DMSO alone. The negative control was not treated with the extract or the active component but treated with 0.5 μg/ml of thapsigargin alone to induce endoplasmic reticulum stress. Then, the expression of the endoplasmic reticulum stress marker gene was confirmed by the same manner as described above.
# (§2) Particularly, SH-SY5Y cells were cultured by the same manner as described in Experimental Example <2-2>, and endoplasmic reticulum stress was induced. Then, RT-PCR was performed with the cells having endoplasmic reticulum stress by the same manner as described in Experimental Example <1-4>, followed by electrophoresis to investigate the expression levels of GRP78 and XBP1p genes on 1.5% agarose gel under UV. The normal control was not treated with the extract of the invention but treated with DMSO alone. […]
# XBP1p = experiment: RT-PCR of endoplasmic reticulum stress marker XBP1p, thapsigargin; type: cell-based, human; conditions: treatment 0.5 μg/ml, thapsigargin 0.5 μg/ml; negative control 100.00
# Method: as §1, §2
# SH-SY5Y cells [2] = experiment: MTT assay, endoplasmic reticulum stress induced by thapsigargin or tunicamycin; type: cell-based, human; conditions: treatment 0.5 μg/ml
# Method: Particularly, SH-SY5Y cells were cultured by the same manner as described in Experimental Example <1-2>. The cells were treated with 1.0 ug/ml of the Angelica Dahurica Root extract prepared in Example <1-2> or 0.5 μg/ml or 1.0 μg/ml of Imperatorin, the active component thereof, followed by culture for 4 hours. The cells were treated with 0.5 μg/ml of thapsigargin (Thap) or 1 μg/ml of tunicamycin (Tuni), followed by culture for 24 hours to induce endoplasmic reticulum stress. Then, MTT assay was performed by the same manner as described in Experimental Example <1-2>. Compared with the normal control cells not treated with the extract or the active component thereof but treated with DMSO, the damage of mitochondria complex 1 in the cells, either increased or decreased, was investigated. The negative control was treated with 0.5 μg/ml of thapsigargin or 1 μg/ml of tunicamycin to cause endoplasmic reticulum stress but not treated with the extract or the active component thereof, followed by MTT assay by the same manner as described above.
# SH-SY5Y cells [3] = experiment: ATP assay, endoplasmic reticulum stress induced by thapsigargin or tunicamycin; type: cell-based, human; conditions: treatment 0.5 μg/ml
# Method: Particularly, SH-SY5Y cells were cultured by the same manner as described in Experimental Example <2-2>, and endoplasmic reticulum stress was induced. Then, the intracellular ATP level was measured by the same manner as described in Experimental Example <1-3>. The normal control was not treated with the extract of the invention or the active component thereof but treated with DMSO alone. All the results were presented as % by the normal control to present the intracellular ATP level. The negative control was not treated with the extract or the active component but treated with 0.5 μg/ml of thapsigargin or 1.0 μg/ml of tunicamycin alone to induce endoplasmic reticulum stress. Then, the Intracellular ATP level was measured by the same manner as described above.
smiles,measurement,setting,value
"CC(C)=CCOc1c2occc2cc2ccc(=O)oc12 [Imperatorin, 9-[(3-Methyl-2-buten-1-yl)oxy]-7h-furo[3,2-g][1]benzopyran-7-one]",Cell survival rate (% of control),[1],101.16 ± 0.59 % of control
same,GRP78/18S mRNA,GRP78,2.97 ± 0.05
same,XBP1p/18S mRNA,XBP1p,4.01 ± 0.05
same,MTT (% of control),SH-SY5Y cells [2]; inducer thapsigargin 0.5 μg/ml,86.23 ± 5.31 % of control
same,MTT (% of control),SH-SY5Y cells [2]; inducer tunicamycin 1.0 μg/ml,84.93 ± 3.68 % of control
same,Intracellular ATP content (% of control),SH-SY5Y cells [3]; inducer thapsigargin 0.5 μg/ml,104.85 ± 5.13 % of control
same,Intracellular ATP content (% of control),SH-SY5Y cells [3]; inducer tunicamycin 1.0 μg/ml,86.00 ± 1.18 % of control
